According to US12173018B2, “Penicillin-binding protein inhibitors” (priority 2018, dated 2024):
Converted amounts (≈) assume the structure as drawn. Read-outs that look alike come from different tables or passages of the source.

How the values were obtained:
E. coli ATCC 25922 = assay: Broth microdilution MIC, E. coli ATCC 25922; type: cell-based; conditions: Escherichia coli
In short: (§1)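 Strains are tested by standard CLSI broth microdilution. Log-phase cells, diluted by OD600 to 5×10^5 CFU/mL, meet 2-fold compound series and incubate 16-20 hours at 37° C before the lowest growth-free concentration is recorded.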

E. coli AG100 = assay: Broth microdilution MIC, E. coli AG100 (wild-type parent); type: cell-based; conditions: Escherichia coli; wild-type parent E. coli AG100, broth microdilution; read-out: MIC E. coli AG100
In short: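 Starting inoculum of 5×10^5 CFU/mL, from colonies grown 3-5 h in Mueller-Hinton broth with divalent cations, added to two-fold compound dilution series.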

E. coli 901C = assay: microbe, parasite or virus in culture; type: cell-based; conditions: Escherichia coli; hyper-permeable E. coli 901C, broth microdilution; read-out: MIC E. coli 901C
In short: as §1

E. coli AG100A = assay: microbe, parasite or virus in culture; type: cell-based; conditions: Escherichia coli, read-out: MIC E. coli AG100A
In short: as §1

E. coli D22 = assay: microbe, parasite or virus in culture; type: cell-based; conditions: Escherichia coli; hyper-permeable E. coli D22, broth microdilution; read-out: MIC E. coli D22
In short: as §1

K. pneumoniae SI-117 = assay: microbe, parasite or virus in culture; type: cell-based; conditions: Klebsiella pneumoniae, SI117, read-out: MIC K. pneumoniae SI-117
In short: as §1

K. pneumoniae UMM = assay: microbe, parasite or virus in culture; type: cell-based; conditions: Klebsiella pneumoniae; K. pneumoniae UMM producing SHV-5 and KPC-2; read-out: MIC K. pneumoniae UMM
In short: as §1

K. pneumoniae 848844 = assay: microbe, parasite or virus in culture; type: cell-based, Klebsiella pneumoniae; conditions: Klebsiella pneumoniae; K. pneumoniae 848844 producing SHV-11 and KPC-2; read-out: MIC K. pneumoniae 848844
In short: as §1

[1] = tested on: N. gonorrhoeae ATCC 49226; assay: Liquid broth MIC, N. gonorrhoeae ATCC 49226; type: cell-based; conditions: Neisseria gonorrhoeae
In short: (§2)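 Growth inhibition was scored by eye as the lowest compound concentration free of bacterial growth. Cultures from Kellogg's-supplemented GC agar, diluted to 5×10^5 CFU/mL, were exposed to serially diluted compound for 40-42 h at 36° C under 5% CO2.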

N. gonorrhoeae FA1090 = assay: Liquid broth MIC, N. gonorrhoeae FA1090; type: cell-based; conditions: Neisseria gonorrhoeae
In short: as §2

N. gonorrhoeae WHO F = assay: Liquid broth MIC, N. gonorrhoeae WHO F; type: cell-based; conditions: Neisseria gonorrhoeae, read-out: Minimum Inhibitory Concentration, N. gonorrhoeae WHO F
In short: as §2

N. gonorrhoeae FA19 = assay: Liquid broth MIC, N. gonorrhoeae FA19; type: cell-based; conditions: Neisseria gonorrhoeae
In short: as §2

[2] = ATCC25922, E. coli ATCC 25922, broth microdilution, read-out: MIC E. coli 25922
[3] = ATCC49226, N. gonorrhoeae ATCC 49226, liquid broth, read-out: Minimum Inhibitory Concentration, N. gonorrhoeae ATCC 49226
[4] = N. gonorrhoeae FA1090, liquid broth, read-out: Minimum Inhibitory Concentration, N. gonorrhoeae FA1090
[5] = N. gonorrhoeae WHO F, liquid broth
[6] = N. gonorrhoeae FA19, liquid broth, read-out: Minimum Inhibitory Concentration, N. gonorrhoeae FA19

Row | Compound | MIC (E. coli ATCC 25922; [2]) [µg/mL] | MIC (E. coli AG100) [µg/mL] | MIC (E. coli 901C) [µg/mL] | MIC (E. coli AG100A) [µg/mL] | MIC (E. coli D22) [µg/mL] | MIC (K. pneumoniae SI-117) [µg/mL] | MIC (K. pneumoniae UMM) [µg/mL] | MIC (K. pneumoniae 848844) [µg/mL] | MIC [1, 3] [µg/mL] | MIC (N. gonorrhoeae FA1090; [4]) [µg/mL] | MIC (N. gonorrhoeae WHO F; [5]) [µg/mL] | MIC (N. gonorrhoeae FA19; [6]) [µg/mL] | MIC (E. coli ATCC 25922; ATCC25922, read-out: MIC E. coli 25922) [µg/mL] | MIC ([1]; ATCC49226, read-out: Minimum Inhibitory Concentration, N. gonorrhoeae ATCC 49226) [µg/mL] | MIC (N. gonorrhoeae FA1090; FA1090, read-out: Minimum Inhibitory Concentration, N. gonorrhoeae FA1090) [µg/mL] | MIC (N. gonorrhoeae WHO F) [µg/mL] | MIC (N. gonorrhoeae FA19; FA19, read-out: Minimum Inhibitory Concentration, N. gonorrhoeae FA19) [µg/mL]
1 | CC[C@H]1CN(CC)C(=O)C(=O)N1C(=O)NC(C(=O)N[C@H]1Cc2cccc(C(=O)O)c2OB1O)c1ncc(O)cc1F (stereo partly drawn) [Example 218, (3R)-3-(2-((S)-4,6-diethyl-2,3-dioxopiperazine-1-carboxamido)-2-(3-fluoro-5-hydroxypyridin-2-yl)acetamido)-2-hydroxy-3,4-dihydro-2H-benzo[e][1,2]oxaborinine-8-carboxylic acid] | 32 to 64 | 32 to 64 | < 0.25 | 2 to 4 | 2 to 4 | > 128 | 32 to 64 | > 128 | 16 to 32 (≈ 28 to 56 µM) | 0.25 to 0.5 (≈ 0.438 to 0.875 µM) | 0.25 to 0.5 (≈ 0.438 to 0.875 µM) | 16 to 32 (≈ 28 to 56 µM) | – | – | – | – | –
2 | C[C@H]1CN(CCO)C(=O)C(=O)N1C(=O)NC(C(=O)N[C@H]1Cc2cccc(C(=O)O)c2OB1O)c1ccc(O)c(O)c1Cl (stereo partly drawn) [Example 224, (3R)-3-(2-(2-chloro-3,4-dihydroxyphenyl)-2-((S)-4-(2-hydroxyethyl)-6-methyl-2,3-dioxopiperazine-1-carboxamido)acetamido)-2-hydroxy-3,4-dihydro-2H-benzo[e][1,2]oxaborinine-8-carboxylic acid] | 2 to 4 | 2 to 4 | 0.5 to 1 | 0.5 to 1 | 2 to 4 | 2 to 4 | 2 to 4 | 2 to 4 | > 64 | 1 to 2 (≈ 1.65 to 3.31 µM) | 4 to 8 (≈ 6.61 to 13.2 µM) | > 64 | – | – | – | – | –
3 | NCCN1CCN(C(=O)N[C@@H](C(=O)N[C@H]2Cc3cccc(C(=O)O)c3OB2O)c2ncc(O)cc2F)C(=O)C1=O [Example 225, (R)-3-((R)-2-(4-(2-aminoethyl)-2,3-dioxopiperazine-1-carboxamido)-2-(3-fluoro-5-hydroxypyridin-2-yl)acetamido)-2-hydroxy-3,4-dihydro-2H-benzo[e][1,2]oxaborinine-8-carboxylic acid] | 8 to 16 | 8 to 16 | 0.5 to 1 | 0.5 to 1 | 2 to 4 | 8 to 16 | 8 to 16 | 32 to 64 | 16 to 32 (≈ 28.7 to 57.3 µM) | 0.25 to 0.5 (≈ 0.448 to 0.896 µM) | 0.25 to 0.5 (≈ 0.448 to 0.896 µM) | 4 to 8 (≈ 7.16 to 14.3 µM) | – | – | – | – | –
4 | NCCN1CCN(C(=O)N[C@@H](C(=O)N[C@H]2Cc3ccc(F)c(C(=O)O)c3OB2O)c2ccc(O)c(O)c2Cl)C(=O)C1=O [Example 227, (R)-3-((R)-2-(4-(2-aminoethyl)-2,3-dioxopiperazine-1-carboxamido)-2-(2-chloro-3,4-dihydroxyphenyl)acetamido)-7-fluoro-2-hydroxy-3,4-dihydro-2H-benzo[e][1,2]oxaborinine-8-carboxylic acid] | 0.5 to 1 | < 0.25 | < 0.25 | < 0.25 | 0.5 to 1 | 0.5 to 1 | 0.5 to 1 | 0.5 to 1 | 4 to 8 (≈ 6.58 to 13.2 µM) | 1 to 2 (≈ 1.65 to 3.29 µM) | 1 to 2 (≈ 1.65 to 3.29 µM) | 4 to 8 (≈ 6.58 to 13.2 µM) | – | – | – | – | –
5 | CC(=O)NCCN1CCN(C(=O)NC(C(=O)N[C@H]2Cc3cccc(C(=O)O)c3OB2O)c2ccc(O)c(O)c2Cl)C(=O)C1=O (stereo partly drawn) [Example 228, (3R)-3-(2-(4-(2-acetamidoethyl)-2,3-dioxopiperazine-1-carboxamido)-2-(2-chloro-3,4-dihydroxyphenyl)acetamido)-2-hydroxy-3,4-dihydro-2H-benzo[e][1,2]oxaborinine-8-carboxylic acid] | 8 to 16 | 2 to 4 | 0.5 to 1 | 0.5 to 1 | 2 to 4 | 2 to 4 | 0.5 to 1 | 2 to 4 | > 64 | 1 to 2 (≈ 1.58 to 3.17 µM) | 4 to 8 (≈ 6.33 to 12.7 µM) | > 64 | – | – | – | – | –
6 | CS(=O)(=O)NCCN1CCN(C(=O)NC(C(=O)N[C@H]2Cc3cccc(C(=O)O)c3OB2O)c2ccc(O)c(O)c2Cl)C(=O)C1=O (stereo partly drawn) [Example 229, (3R)-3-(2-(2-chloro-3,4-dihydroxyphenyl)-2-(4-(2-(methylsulfonamido)ethyl)-2,3-dioxopiperazine-1-carboxamido)acetamido)-2-hydroxy-3,4-dihydro-2H-benzo[e][1,2]oxaborinine-8-carboxylic acid] | 8 to 16 | 2 to 4 | 0.5 to 1 | 0.5 to 1 | 2 to 4 | 8 to 16 | 8 to 16 | 2 to 4 | > 64 | 4 to 8 (≈ 5.99 to 12 µM) | 4 to 8 (≈ 5.99 to 12 µM) | > 64 | – | – | – | – | –
7 | NCCN1CCN(C(=O)N[C@@H](C(=O)N[C@H]2Cc3ccc(F)c(C(=O)O)c3OB2O)c2ncc(O)cc2F)C(=O)C1=O [Example 230, (R)-3-((R)-2-(4-(2-aminoethyl)-2,3-dioxopiperazine-1-carboxamido)-2-(3-fluoro-5-hydroxypyridin-2-yl)acetamido)-7-fluoro-2-hydroxy-3,4-dihydro-2H-benzo[e][1,2]oxaborinine-8-carboxylic acid] | 8 to 16 | 8 to 16 | 0.5 to 1 | 2 to 4 | 2 to 4 | 8 to 16 | 8 to 16 | 32 to 64 | 4 to 8 (≈ 6.94 to 13.9 µM) | 1 to 2 (≈ 1.74 to 3.47 µM) | 0.25 to 0.5 (≈ 0.434 to 0.868 µM) | 4 to 8 (≈ 6.94 to 13.9 µM) | – | – | – | – | –
8 | NCCCN1CCN(C(=O)NC(C(=O)N[C@H]2Cc3cccc(C(=O)O)c3OB2O)c2ccc(O)c(O)c2Cl)C(=O)C1=O (stereo partly drawn) [Example 233, (3R)-3-(2-(4-(3-aminopropyl)-2,3-dioxopiperazine-1-carboxamido)-2-(2-chloro-3,4-dihydroxyphenyl)acetamido)-2-hydroxy-3,4-dihydro-2H-benzo[e][1,2]oxaborinine-8-carboxylic acid] | 8 to 16 | 0.5 to 1 | 0.5 to 1 | 0.5 to 1 | 0.5 to 1 | 2 to 4 | 2 to 4 | 2 to 4 | > 64 | 1 to 2 (≈ 1.66 to 3.31 µM) | 4 to 8 (≈ 6.62 to 13.2 µM) | 16 to 32 (≈ 26.5 to 53 µM) | – | – | – | – | –
9 | CCN1C[C@H](CO)N(C(=O)NC(C(=O)N[C@H]2Cc3cccc(C(=O)O)c3OB2O)c2ncc(O)cc2F)C(=O)C1=O (stereo partly drawn) [Example 234, (3R)-3-(2-((R)-4-ethyl-6-(hydroxymethyl)-2,3-dioxopiperazine-1-carboxamido)-2-(3-fluoro-5-hydroxypyridin-2-yl)acetamido)-2-hydroxy-3,4-dihydro-2H-benzo[e][1,2]oxaborinine-8-carboxylic acid] | – | > 128 | 2 to 4 | 8 to 16 | 8 to 16 | > 128 | 32 to 64 | > 128 | – | – | – | – | > 128 | 16 to 32 (≈ 27.9 to 55.8 µM) | 0.25 to 0.5 (≈ 0.436 to 0.872 µM) | 0.25 to 0.5 (≈ 0.436 to 0.872 µM) | 16 to 32 (≈ 27.9 to 55.8 µM)
10 | CCNC(=O)NCCN1CCN(C(=O)NC(C(=O)N[C@H]2Cc3cccc(C(=O)O)c3OB2O)c2ccc(O)c(O)c2Cl)C(=O)C1=O (stereo partly drawn) [Example 235, (3R)-3-(2-(2-chloro-3,4-dihydroxyphenyl)-2-(4-(2-(3-ethylureido)ethyl)-2,3-dioxopiperazine-1-carboxamido)acetamido)-2-hydroxy-3,4-dihydro-2H-benzo[e][1,2]oxaborinine-8-carboxylic acid] | 32 to 64 | 8 to 16 | 2 to 4 | 2 to 4 | 2 to 4 | 8 to 16 | 2 to 4 | 2 to 4 | > 64 | 1 to 2 (≈ 1.51 to 3.03 µM) | 1 to 2 (≈ 1.51 to 3.03 µM) | > 64 | – | – | – | – | –
11 | NCCCN1CCN(C(=O)N[C@@H](C(=O)N[C@H]2Cc3ccc(F)c(C(=O)O)c3OB2O)c2ccc(O)c(O)c2Cl)C(=O)C1=O [Example 236, (R)-3-((R)-2-(4-(3-aminopropyl)-2,3-dioxopiperazine-1-carboxamido)-2-(2-chloro-3,4-dihydroxyphenyl)acetamido)-7-fluoro-2-hydroxy-3,4-dihydro-2H-benzo[e][1,2]oxaborinine-8-carboxylic acid] | 0.5 to 1 | 0.5 to 1 | 0.5 to 1 | 0.5 to 1 | 0.5 to 1 | 0.5 to 1 | 0.5 to 1 | 0.5 to 1 | 16 to 32 (≈ 25.7 to 51.5 µM) | 1 to 2 (≈ 1.61 to 3.22 µM) | 1 to 2 (≈ 1.61 to 3.22 µM) | 4 to 8 (≈ 6.43 to 12.9 µM) | – | – | – | – | –
